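Assay format: 96-well plates, 48-hour exposure. GI50: concentration for 50% inhibition of growth.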 Calls of active or inactive are those of the source. Cut-off read from the data, not from the text of the source: active = GI50 up to about 1.1 µM and inactive = higher. Some results are limits rather than exact numbers.

Test systems include CAKI-1; SF-539; BT-549; OVCAR-8; EKVX; SK-MEL-5; SK-MEL-2; RXF 393; HCT-116; HL-60; HCT-15; HT-29; IGROV-1; UACC-62; SF-295; CCRF-CEM; NCI-H522; SW-620; SF-268; DU-145.
Assay in all cases: growth of human tumour cells (NCI), 48 h

For `CCN(C(=O)N[C@H](C(=O)N[C@@H](C)C(=O)OC)C(C)C)c1ccccc1`, the GI50 is > 100 µM (inactive) with CAKI-1; 19.2 µM (inactive) with SF-539; 60.4 µM (inactive) with BT-549; 24.5 µM (inactive) with OVCAR-8; > 100 µM (inactive) with EKVX; 36.8 µM (inactive) in the test with SK-MEL-5. In addition, the GI50 with SK-MEL-2 was 28.8 µM (inactive); with RXF 393, 39.5 µM (inactive); in the test with HCT-116, 22.5 µM (inactive); in the test with HL-60, 23.4 µM (inactive); in the test with HCT-15, 32.4 µM; with HT-29, 38.8 µM (inactive). The GI50 in the test on IGROV-1 was 28.1 µM (inactive); in the test on UACC-62 it was 22.1 µM (inactive); in the test with SF-295 it was 70 µM (inactive); in the test on CCRF-CEM, 56 µM (inactive); in the test on NCI-H522, 19 µM (inactive); in the test on SW-620, 39.2 µM (inactive). Further, the GI50 in the test with SF-268 and in the test with DU-145 was > 100 µM (inactive) each time.

(Values after ChEMBL document CHEMBL1201862, “PubChem BioAssay data set” (2004).)
